# From ChEMBL document CHEMBL3885861, “Open TG-GATES”
# Structures can show the parent of a compound that is named as a salt.
# Organism: Rattus norvegicus
# Experiment: Open TG-GATES - Regimen: Single
# Type: toxicity, organism-based, Sprague-Dawley
# Set-up: regimen Single, gender Male, age 6 weeks
# Conditions: in vivo, ip, 240 mg/kg, route intraperitoneal injection, dose level Middle; for APTT / Bas / Eos / Fbg / Hb / Ht / Lym / MCH / MCHC / MCV / Mono / Neu / PT / Plat / RBC / Ret / WBC: tissue Blood; for KIDNEY_L / KIDNEY_R / KIDNEY_TOTAL: tissue Kidney; for LIVER: tissue Liver; for A/G / ALP / ALT / AST / BUN / CRE / Ca / Cl / DBIL / GLC / IP / K / LDH / Na / PL / RALB / TBIL / TC / TG / TP / gamma-GTP: tissue Plasma
smiles,measurement,setting,value
CCOC(=O)/C=C\C(=O)OCC [DIETHYL MALEATE],TERMINAL_BW,3 h,196.7 g
same,APTT,3 h,16 s
same,Bas,3 h,0%
same,Eos,3 h,1%
same,Fbg,3 h,206.2 mg/dL
same,Hb,3 h,13.4 g/dL
same,Ht,3 h,40.3%
same,Lym,3 h,72%
same,MCH,3 h,21.3 pg
same,MCHC,3 h,33.3%
same,MCV,3 h,63.8 fL
same,Mono,3 h,5.6%
same,Neu,3 h,21.6%
same,PT,3 h,12.4 s
same,Plat,3 h,124.8 x10_4/uL
same,RBC,3 h,631.8 x10_4/ul
same,Ret,3 h,9.7%
same,WBC,3 h,90.3 x10_2/uL
same,KIDNEY_L,3 h,0.9 g
same,KIDNEY_R,3 h,0.9 g
same,KIDNEY_TOTAL,3 h,1.8 g
same,LIVER,3 h,8.5 g
same,A/G,3 h,2.1
same,ALP,3 h,700.6 IU/L
same,ALT,3 h,35.8 IU/L
same,AST,3 h,80.6 IU/L
same,BUN,3 h,17 mg/dL
same,CRE,3 h,0.5 mg/dL
same,Ca,3 h,10.9 mg/dL
same,Cl,3 h,105.4 meq/L
same,DBIL,3 h,0.02 mg/dL
same,GLC,3 h,191.8 mg/dL
same,IP,3 h,10.9 mg/dL
same,K,3 h,5.2 meq/L
same,LDH,3 h,147 IU/L
same,Na,3 h,138.4 meq/L
same,PL,3 h,126 mg/dL
same,RALB,3 h,3.6 g/dL
same,TBIL,3 h,0.4 mg/dL
same,TC,3 h,71.8 mg/dL
same,TG,3 h,30.4 mg/dL
same,TP,3 h,5.3 g/dL
same,gamma-GTP,3 h,1.2 IU/L
same,TERMINAL_BW,6 h,199.7 g
same,APTT,6 h,16.1 s
same,Bas,6 h,0%
same,Eos,6 h,0.8%
same,Fbg,6 h,210.2 mg/dL
same,Hb,6 h,13 g/dL
same,Ht,6 h,38.9%
same,Lym,6 h,71.2%
same,MCH,6 h,22 pg
same,MCHC,6 h,33.3%
same,MCV,6 h,66 fL
same,Mono,6 h,6.8%
same,Neu,6 h,21.4%
same,PT,6 h,12.2 s
same,Plat,6 h,121.8 x10_4/uL
same,RBC,6 h,589.4 x10_4/ul
same,Ret,6 h,10.6%
same,WBC,6 h,107.7 x10_2/uL
same,KIDNEY_L,6 h,0.9 g
same,KIDNEY_R,6 h,0.9 g
same,KIDNEY_TOTAL,6 h,1.9 g
same,LIVER,6 h,8.6 g
same,A/G,6 h,1.9
same,ALP,6 h,729.6 IU/L
same,ALT,6 h,35 IU/L
same,AST,6 h,69.8 IU/L
same,BUN,6 h,14.8 mg/dL
same,CRE,6 h,0.5 mg/dL
same,Ca,6 h,10.7 mg/dL
same,Cl,6 h,106.6 meq/L
same,DBIL,6 h,0.004 mg/dL
same,GLC,6 h,192.6 mg/dL
same,IP,6 h,9.8 mg/dL
same,K,6 h,5 meq/L
same,LDH,6 h,112.8 IU/L
same,Na,6 h,139.2 meq/L
same,PL,6 h,131 mg/dL
same,RALB,6 h,3.5 g/dL
same,TBIL,6 h,0.4 mg/dL
same,TC,6 h,82.8 mg/dL
same,TG,6 h,39.6 mg/dL
same,TP,6 h,5.3 g/dL
same,gamma-GTP,6 h,1.4 IU/L
same,TERMINAL_BW,9 h,195.9 g
same,APTT,9 h,17 s
same,Bas,9 h,0%
same,Eos,9 h,1%
same,Fbg,9 h,209 mg/dL
same,Hb,9 h,13 g/dL
same,Ht,9 h,38.5%
same,Lym,9 h,74.8%
same,MCH,9 h,21.8 pg
same,MCHC,9 h,33.6%
same,MCV,9 h,64.7 fL
same,Mono,9 h,5.4%
same,Neu,9 h,19%
same,PT,9 h,12.2 s
same,Plat,9 h,115.5 x10_4/uL
same,RBC,9 h,595 x10_4/ul
same,Ret,9 h,9.6%
same,WBC,9 h,90.7 x10_2/uL
same,KIDNEY_L,9 h,0.9 g
same,KIDNEY_R,9 h,0.9 g
same,KIDNEY_TOTAL,9 h,1.7 g
same,LIVER,9 h,7.8 g
same,A/G,9 h,2.2
same,ALP,9 h,849.2 IU/L
same,ALT,9 h,34.6 IU/L
same,AST,9 h,71.8 IU/L
same,BUN,9 h,12.2 mg/dL
same,CRE,9 h,0.4 mg/dL
same,Ca,9 h,10.7 mg/dL
same,Cl,9 h,108.2 meq/L
same,DBIL,9 h,0.016 mg/dL
same,GLC,9 h,188.4 mg/dL
same,IP,9 h,9.7 mg/dL
same,K,9 h,4.7 meq/L
same,LDH,9 h,77.6 IU/L
same,Na,9 h,139.4 meq/L
same,PL,9 h,120.4 mg/dL
same,RALB,9 h,3.5 g/dL
same,TBIL,9 h,0.4 mg/dL
same,TC,9 h,67.6 mg/dL
same,TG,9 h,33.4 mg/dL
same,TP,9 h,5.2 g/dL
same,gamma-GTP,9 h,1.2 IU/L
same,TERMINAL_BW,24 h,210.6 g
same,APTT,24 h,15.9 s
same,Bas,24 h,0%
same,Eos,24 h,1%
same,Fbg,24 h,218.4 mg/dL
same,Hb,24 h,13.5 g/dL
same,Ht,24 h,40%
same,Lym,24 h,81.2%
same,MCH,24 h,21.9 pg
same,MCHC,24 h,33.6%
same,MCV,24 h,65 fL
same,Mono,24 h,4%
same,Neu,24 h,14%
same,PT,24 h,11.5 s
same,Plat,24 h,114.2 x10_4/uL
same,RBC,24 h,615.6 x10_4/ul
same,Ret,24 h,9.9%
same,WBC,24 h,113 x10_2/uL
same,KIDNEY_L,24 h,0.9 g
same,KIDNEY_R,24 h,0.9 g
same,KIDNEY_TOTAL,24 h,1.9 g
same,LIVER,24 h,10.2 g
same,A/G,24 h,2.3
same,ALP,24 h,871.4 IU/L
same,ALT,24 h,39.8 IU/L
same,AST,24 h,68.2 IU/L
same,BUN,24 h,17.6 mg/dL
same,CRE,24 h,0.5 mg/dL
same,Ca,24 h,10.8 mg/dL
same,Cl,24 h,106.2 meq/L
same,DBIL,24 h,0.02 mg/dL
same,GLC,24 h,198 mg/dL
same,IP,24 h,8.2 mg/dL
same,K,24 h,5.2 meq/L
same,LDH,24 h,125.2 IU/L
same,Na,24 h,139 meq/L
same,PL,24 h,145.4 mg/dL
same,RALB,24 h,3.8 g/dL
same,TBIL,24 h,0.4 mg/dL
same,TC,24 h,78 mg/dL
same,TG,24 h,99.2 mg/dL
same,TP,24 h,5.5 g/dL
same,gamma-GTP,24 h,1.8 IU/L
